Laboratory results as given in patent US9120762B2, “Salts of bicyclo-substituted pyrazolon azo derivatives, preparation method and use thereof” (Jiangsu Hengrui Medicine Co., Ltd., priority 2009, dated 2015).

What was measured:
human TPOR = target: T1, human TPOR (Homo sapiens, UniProt P40238); experiment: Proliferation effect on BAF3-TPOR cell (CCK-8); format: cell-based; settings: rate relative to rhTPO positive control
T1 construct: host or cells: BaF3 (murine pro-B cells), stably transfected, G418-selected
T1 sequence (P40238 26-635): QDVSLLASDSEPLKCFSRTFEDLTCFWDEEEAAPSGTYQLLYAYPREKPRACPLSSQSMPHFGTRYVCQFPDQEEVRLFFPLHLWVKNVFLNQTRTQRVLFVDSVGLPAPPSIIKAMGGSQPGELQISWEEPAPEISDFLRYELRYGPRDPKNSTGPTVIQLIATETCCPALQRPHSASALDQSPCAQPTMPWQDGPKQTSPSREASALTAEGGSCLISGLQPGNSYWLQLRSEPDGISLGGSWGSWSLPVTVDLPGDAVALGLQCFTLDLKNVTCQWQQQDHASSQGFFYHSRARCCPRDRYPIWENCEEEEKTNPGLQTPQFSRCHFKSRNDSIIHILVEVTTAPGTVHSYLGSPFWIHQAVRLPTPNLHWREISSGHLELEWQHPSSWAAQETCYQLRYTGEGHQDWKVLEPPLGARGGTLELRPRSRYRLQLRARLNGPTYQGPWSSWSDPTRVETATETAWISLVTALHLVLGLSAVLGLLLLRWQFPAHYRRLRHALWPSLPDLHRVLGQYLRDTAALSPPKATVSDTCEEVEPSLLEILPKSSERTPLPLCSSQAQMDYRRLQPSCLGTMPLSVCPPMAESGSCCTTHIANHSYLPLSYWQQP
Procedure, shortened: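 BaF3 cells stably expressing dual-site-mutated human TPOR were washed free of IL-3 and plated at 100,000 cells/mL with test solutions of 0.001–30 μM, then incubated 24 h at 37 °C. After a further 24 h with CCK-8, OD450 was read. Proliferation = (S−B)/(P−B) against a rhTPO control, fitted for EC50.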

[1] = Pharmacokinetics assay in rats; format: in vivo, SD rats
Procedure, shortened: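 SD rats, half male and half female, dosed intragastrically with compound suspended at 5 mg/mL (as free acid) in 1% sodium carboxymethyl cellulose; fed 2 h post-dose. Plasma concentrations over time were measured by HPLC-UV. Parameters came from a compartmental fit, with Cmax and tmax as observed values.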

[2] = SD rats, intragastric, 50 mg/Kg (as free acid), 50 mg/kg

Compound | EC50 (human TPOR) | Area Under Curve AUC [1, 2] | Clearance CL/F [1, 2] | Half-Life t½ [1, 2] | Plasma Conc. Cmax [1, 2] | Time to peak Tmax [1, 2] | Vd/F ([1]; both sexes, SD, rat, plasma, po, 50 mg/kg, SD rats, intragastric, 50 mg/Kg (as free acid), read-out: Apparent Distribution Volume Vz/F) | AUC ([1]; both sexes, SD, rat, plasma, po, 50 mg/kg, SD rats, intragastric, 50 mg/Kg (as free acid), read-out: Area Under Curve AUC) | CL/F ([1]; both sexes, SD, rat, plasma, po, 50 mg/kg, SD rats, intragastric, 50 mg/Kg (as free acid), read-out: Clearance CL/F (converted)) | half-life ([1]; both sexes, SD, rat, plasma, po, 50 mg/kg, SD rats, intragastric, 50 mg/Kg (as free acid), read-out: Half-Life t½ (converted)) | MRT ([1]; both sexes, SD, rat, plasma, po, 50 mg/kg, SD rats, intragastric, 50 mg/Kg (as free acid), read-out: Mean Residence Time MRT) | Cmax ([1]; both sexes, SD, rat, plasma, po, 50 mg/kg, SD rats, intragastric, 50 mg/Kg (as free acid), read-out: Plasma Conc. Cmax) | Tmax ([1]; both sexes, SD, rat, plasma, po, 50 mg/kg, SD rats, intragastric, 50 mg/Kg (as free acid), read-out: Time to peak Tmax) | pharmacokinetics and bioavailability, in words ([1]; rats, comparing to the free acid)
CC1=NN(c2ccc3c(c2)CCCC3)C(=O)/C1=N\Nc1cccc(-c2ccc(C(=O)O)o2)c1O [Example 12, (Z)-5-(2-hydroxy-3-{N′-[3-methyl-5-oxo-1-(5,6,7,8-tetrahydro-naphthalen-2-yl)-1,5-dihydro-pyrazol-4-ylidene]-hydrazino}-phenyl)-furan-2-carboxylic acid bis-(trometamol)] | 0.014 µM | 58.5 ± 23.8 µg·h/mL | 1.00 ± 0.504 L/h/kg | 5.1 ± 2.41 h | 17.8 ± 10.3 µg/mL | 1.38 ± 1.11 h |  |  |  |  |  |  |  | 
CC1=NN(c2ccc3c(c2)CCCC3)C(=O)/C1=N\Nc1cccc(-c2ccc(C(=O)O)o2)c1O.NCCO.NCCO [Example 7, (Z)-5-(2-hydroxy-3-{N′-[3-methyl-5-oxo-1-(5,6,7,8-tetrahydro-naphthalen-2-yl)-1,5-dihydro-pyrazol-4-ylidene]-hydrazino}-phenyl)-furan-2-carboxylic acid bis-(ethanolamine)] | 0.019 µM |  |  |  |  |  | 2.48 ± 0.92 L/kg | 469 ± 274 µg·h/mL | 0.175 L/h/kg | 13.9 ± 6.07 h | 13.3 ± 5.12 h | 74.1 ± 34.5 µg/mL | 1.75 ± 0.5 h | good pharmacokinetic characteristics
CC1=NN(c2ccc3c(c2)CCCC3)C(=O)/C1=N\Nc1cccc(-c2ccc(C(=O)O)o2)c1O [Example 8, (Z)-5-(2-hydroxy-3-{N′-[3-methyl-5-oxo-1-(5,6,7,8-tetrahydro-naphthalen-2-yl)-1,5-dihydro-pyrazol-4-ylidene]-hydrazino}-phenyl)-furan-2-carboxylic acid bis-(choline)] | 0.0044 µM | 352 ± 586 µg·h/mL | 0.926 ± 1.013 L/h/kg | 10.6 ± 9.02 h | 36.2 ± 46.2 µg/mL | 1.38 ± 1.11 h |  |  |  |  |  |  |  | 
